Data on 12 compounds can be found in US11312723B2, “Pyranopyrazole and pyrazolopyridine immunomodulators for treatment of autoimmune diseases” (The Rockefeller University, priority 2017, dated 2022).

Molecules are shown by their SMILES.

Human FXIIa, sequence (P00748 373-615): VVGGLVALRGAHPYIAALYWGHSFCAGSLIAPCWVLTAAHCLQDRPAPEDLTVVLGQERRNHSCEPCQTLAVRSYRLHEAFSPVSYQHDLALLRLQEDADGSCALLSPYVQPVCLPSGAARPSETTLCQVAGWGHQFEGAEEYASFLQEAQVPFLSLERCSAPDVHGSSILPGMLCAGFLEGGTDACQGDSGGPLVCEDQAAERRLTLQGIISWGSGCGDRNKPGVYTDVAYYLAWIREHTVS
Human FXIIa, sequence (P00748 20-372 partner): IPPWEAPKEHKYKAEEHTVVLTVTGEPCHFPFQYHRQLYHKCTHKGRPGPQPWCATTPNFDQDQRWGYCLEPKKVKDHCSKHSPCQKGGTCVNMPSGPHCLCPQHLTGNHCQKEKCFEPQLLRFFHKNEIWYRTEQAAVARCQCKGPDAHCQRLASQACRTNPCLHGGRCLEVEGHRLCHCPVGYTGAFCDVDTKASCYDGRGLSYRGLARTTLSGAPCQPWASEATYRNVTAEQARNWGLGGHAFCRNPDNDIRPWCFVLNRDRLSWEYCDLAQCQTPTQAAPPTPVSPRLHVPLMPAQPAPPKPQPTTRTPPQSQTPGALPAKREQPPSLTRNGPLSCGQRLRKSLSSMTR

For the experiment, the target named is Human FXIIa (Homo sapiens (Human), UniProt P00748). Kind of experiment: Factor XIIa (FXIIa) inhibitory activity, chromogenic substrate (Pefachrome XIIa) cleavage. It counts as biochemical. The note with it: 10 min pre-incubation, Pefachrome XIIa 400 μM. The procedure: Factor XIIa (FXIIa) Inhibitory Activity:
In a 96-well clear bottom plate, 80 μl of assay buffer was added to each well. Assay buffer consists of 0.5× Hank's Balanced Salt Solution (Invitrogen), buffered with 25 mM HEPES pH 7.4 (Invitrogen) and 0.5× Tris-buffered saline with Tween-20 0.05% (Santa Cruz Biotechnology). Test compounds were first dissolved in DMSO (Sigma) and then 4 μl were added to test wells containing assay buffer. Serial dilutions using an automated multi-channel pipette were used to generate a concentration range of approximately 1-100 μM. Human FXIIa (Enzyme Research Labs) was diluted in assay buffer to a final concentration of 12.5 nM. 80 μl of this enzyme solution was added to the assay wells. The enzyme/compound mixtures were incubated for 10 minutes at room temperature. Chromogenic substrate (Pefachrome XIIa; Enzyme Research Labs) was added to assay wells at a final concentration of 400 μM. The assay plate was spun for 1 minute at 1500 g and then read at 37° C. in a SpectraMax M2 plate reader (λ=405 nm). Activity was quantified as the rate of change in absorbance, which corresponds to the rate of substrate cleavage. IC50 values were determined as the concentration of inhibitor that produced 50% of the rate of change of control wells without any inhibitor. For compounds with activity <1 μM, the assay was repeated with a lower concentration range, typically from 10-1000 nM.
Compound `Cc1cc(F)cc2c1NCC[C@@H]2C(=O)n1nc2c(c1N)COCC2` (single isomer, unassigned) [Example 193, (S*)-(3-amino-6,7-dihydropyrano[4,3-c]pyrazol-2(4H)-yl)(6-fluoro-8-methyl-1,2,3,4-tetrahydro-quinolin-4-yl)methanone] had a half-maximal inhibitory concentration (IC50) of 0.04 µM. This counts as double-digit nanomolar.

On to `Cc1cc2c(C(=O)n3nc4c(c3N)CCN(Cc3ccccc3)C4)cccc2[nH]1` [Example 10, (3-amino-6-benzyl-4,5,6,7-tetrahydropyrazolo[3,4-c]pyridin-2-yl)(2-methyl-1H-indol-4-yl)methanone], for which the midpoint of inhibition, the IC50, lay at 0.03 µM.

Compound `Cc1cccc2c1NCC[C@H]2C(=O)n1nc2c(c1N)CCNC2` (single isomer, unassigned) [Example 177, (R*)-(3-amino-4,5,6,7-tetrahydro-pyrazolo[3,4-c]pyridin-2-yl)(8-methyl-1,2,3,4-tetrahydro-quinolin-4-yl)methanone] showed an IC50 of 30 µM.

The compound `Cc1cccc2c1NCC[C@@H]2C(=O)n1nc2c(c1N)CCN(S(=O)(=O)C1COC1)C2` (single isomer, unassigned) [Example 185, (S*)-(3-amino-6-(oxetan-3-ylsulfonyl)-4,5,6,7-tetrahydro-pyrazolo[3,4-c]pyridin-2-yl)(8-methyl-1,2,3,4-tetrahydro-quinolin-4-yl)methanone] showed an IC50 of 0.2 µM.

Compound `CC(C)CN1CCc2c(N)nn(C(=O)C3CCNc4ccc(F)cc43)c2C1` (stereo not drawn) [Example 154, (3-amino-6-isobutyl-4,5,6,7-tetrahydro-pyrazolo[3,4-c]pyridin-1-yl)(6-fluoro-1,2,3,4-tetrahydro-quinolin-4-yl)methanone] displayed a half-inhibitory concentration (IC50) of 18 µM.

In the case of `Cc1cc(F)cc2c1NCCC2C(=O)n1nc(N)c2c1CN(S(C)(=O)=O)CC2` (stereo not drawn) [Example 52, (3-amino-6-(methylsulfonyl)-4,5,6,7-tetrahydropyrazolo[3,4-c]pyridin-1-yl)(6-fluoro-8-methyl-1,2,3,4-tetrahydroquinolin-4-yl)methanone], the IC50 worked out at 32 µM.

For `CCN1CCc2c(N)nn(C(=O)C3CCNc4c(C)cc(F)cc43)c2C1` (stereo not drawn) [Example 172, (3-amino-6-ethyl-4,5,6,7-tetrahydro-pyrazolo[3,4-c]pyridin-1-yl)(6-fluoro-8-methyl-1,2,3,4-tetrahydro-quinolin-4-yl)methanone], the IC50 amounted to 4.5 µM.

Compound `Nc1nn(C(=O)C2CCNc3ccc(F)cc32)c2c1CCN(S(=O)(=O)CF)C2` (stereo not drawn) [Example 141, (3-amino-6-(fluoromethyl-sulfonyl)-4,5,6,7-tetrahydro-pyrazolo(3,4-c]pyridin-1-yl)(6-fluoro-1,2,3,4-tetrahydro-quinolin-4-yl)methanone] gave an IC50 of 31 µM. Compared with the last compound, the IC50 is about 6.9-fold higher.

As to `CCc1cc(C)c2c(c1)C(C(=O)n1nc(N)c3c1CN(S(C)(=O)=O)CC3)CCN2` (stereo not drawn) [Example 56, (3-amino-6-(methylsulfonyl)-4,5,6,7-tetrahydropyrazolo[3,4-c]pyridin-1-yl)(6-ethyl-8-methyl-1,2,3,4-tetrahydroquinolin-4-yl)methanone], the IC50 is over 65 µM.

Take `CN1CCc2nn(C(=O)C3CCNc4ccccc43)c(N)c2C1` (stereo not drawn) [Example 86, (3-amino-5-methyl-4,5,6,7-tetrahydro-pyrazolo[4,3-c]pyridin-2-yl)(1,2,3,4-tetrahydro-quinolin-4-yl)methanone]: the concentration for half-maximal inhibition (IC50) was determined as 1.25 µM.

`Nc1nn(C(=O)C2CCNc3ccc(F)cc32)c2c1CCN(S(=O)(=O)c1cccnc1)C2` (stereo not drawn) [Example 158, (3-amino-6-(pyridin-3-ylsulfonyl)-4,5,6,7-tetrahydro-pyrazolo[3,4-c]pyridin-1-yl)(6-fluoro-1,2,3,4-tetrahydro-quinolin-4-yl)methanone] gave an IC50 of 37 µM. Against the preceding compound, the IC50 is about 30-fold higher.

Consider `CC(C)(C)S(=O)(=O)N1CCc2c(N)nn(C(=O)C3CCNc4ccc(F)cc43)c2C1` (stereo not drawn) [Example 139, (3-amino-6-(tert-butylsulfonyl)-4,5,6,7-tetrahydro-pyrazolo[3,4-c]pyridin-1-yl)(6-fluoro-1,2,3,4-tetrahydro-quinolin-4-yl)methanone], for which the midpoint of inhibition, the IC50, lay at 55 µM.

As usually defined, the IC50 is the concentration at which inhibition is half-maximal. Read a high IC50 as a need for much substance.
